This experiment has as its system BxPC-3 tumours. As to the kind of experiment: In vivo BxPC-3 xenograft model, tumour growth. Also noted: species or system SCID mice. Conditions: 100 μL I.P. injection, Gem HCl 120 mg/kg (scaled clinical dose); FIG. 7. On the procedure: All animals in these studies were treated humanely and in accordance with licensed protocols under the Animals (Scientific Procedures) Act 1986 (UK). BxPc-3 cells were maintained in RPMI 1640 media supplemented with 100 U/mL penicillin, […] streptomycin, and 10% fetal bovine serum (FBS) in a humidified 5% CO2 atmosphere at 37° C. Cells (1×10^6) were re-suspended in Matrigel® and implanted subcutaneously into the rear dorsum of SCID (C.B-17/IcrHan@Hsd-Prkdcscid) mice. Tumours reached treatable size within 3 weeks. Tumour measurements were taken daily using callipers. Once the tumours had reached an average volume of 150 mm^3 animals were randomly assigned into treatment groups. Animals were anaesthetised using isoflurane with medical grade oxygen as the carrier gas. […] As control groups, animals were treated with a 100 μL I.P injection of either (i) gemcitabine hydrochloride (120 mg/kg) or (ii) gemcitabine hydrochloride (120 mg/kg) and PTX (15 mg/kg). Ultrasound was applied directly to the tumour immediately following injection at an ultrasound frequency of 1 MHz, an ultrasound power density of 3.5 W/cm^2 and a duty cycle of 30% for 3.5 min. Tumour volume was measured using callipers and calculated using the formula: V=L×W×H/2.

Counter-ions that a name gives are not always drawn.

Consider `Nc1ccn([C@@H]2O[C@H](CO)[C@@H](O)C2(F)F)c(=O)n1` [Gem HCl, gemcitabine hydrochloride], for which the tumour growth control result is listed as “significantly controls tumour growth progression”.
